According to ChEMBL document CHEMBL1255296, “Effect of 14-membered-ring macrolides on production of interleukin-8 mediated by protease-activated receptor 2 in human keratinocytes” (Antimicrob Agents Chemother, 2008):
Activity calls are given as the source filed them. The rule behind the calls is not given here.

Legend:
[1] = Toxicity in normal human epidermal keratinocytes assessed as effect on cell viability at 10 uM after 72 hrs by colorimetric assay; type: cell-based; conditions: keratinocyte
[2] = Toxicity in normal human epidermal keratinocytes assessed as effect on cell viability at 100 uM after 72 hrs by colorimetric assay; type: cell-based; conditions: keratinocyte
[3] = target: Proteinase-activated receptor 2 (Homo sapiens) (UniProt P55085); assay: Inhibition of PAR2-mediated IL1-beta and SLIGKV-NH2-induced interleukin-8 production in normal human epidermal keratinocytes at 10 uM by ELISA
[4] = target: Proteinase-activated receptor 2 (Homo sapiens) (UniProt P55085); assay: Inhibition of PAR2-mediated SLIGKV-NH2-induced interleukin-8 production in normal human epidermal keratinocytes up to 100 uM preincubated for 24 hrs by ELISA
[5] = tested on: Keratinocyte; assay: Effect on PAR2 gene expression in normal human epidermal keratinocytes assessed as effect on cell viability at 100 uM after 72 hrs; type: functional, cell-based
[6] = tested on: Keratinocyte; assay: Effect on PAR2 gene expression in normal human epidermal keratinocytes assessed as effect on cell viability at 10 uM after 72 hrs; type: functional, cell-based
[7] = target: Proteinase-activated receptor 2 (Homo sapiens) (UniProt P55085); assay: Inhibition of PAR2-mediated SLIGKV-NH2-induced interleukin-8 production in normal human epidermal keratinocytes preincubated for 24 hrs by ELISA
[8] = target: Proteinase-activated receptor 2 (Homo sapiens) (UniProt P55085); assay: Inhibition of PAR2-mediated SLIGKV-NH2-induced interleukin-8 production in normal human epidermal keratinocytes at 10 uM preincubated for 24 hrs by ELISA
[9] = target: Proteinase-activated receptor 2 (Homo sapiens) (UniProt P55085); assay: Inhibition of PAR2-mediated SLIGKV-NH2-induced interleukin-8 production in normal human epidermal keratinocytes at 5 uM preincubated for 24 hrs by ELISA
[10] = target: Proteinase-activated receptor 2 (Homo sapiens) (UniProt P55085); assay: Inhibition of PAR2-mediated SLIGKV-NH2-induced interleukin-8 production in normal human epidermal keratinocytes at 100 uM preincubated for 24 hrs by ELISA

Chain of Proteinase-activated receptor 2 (Homo sapiens) (P55085 whole entry): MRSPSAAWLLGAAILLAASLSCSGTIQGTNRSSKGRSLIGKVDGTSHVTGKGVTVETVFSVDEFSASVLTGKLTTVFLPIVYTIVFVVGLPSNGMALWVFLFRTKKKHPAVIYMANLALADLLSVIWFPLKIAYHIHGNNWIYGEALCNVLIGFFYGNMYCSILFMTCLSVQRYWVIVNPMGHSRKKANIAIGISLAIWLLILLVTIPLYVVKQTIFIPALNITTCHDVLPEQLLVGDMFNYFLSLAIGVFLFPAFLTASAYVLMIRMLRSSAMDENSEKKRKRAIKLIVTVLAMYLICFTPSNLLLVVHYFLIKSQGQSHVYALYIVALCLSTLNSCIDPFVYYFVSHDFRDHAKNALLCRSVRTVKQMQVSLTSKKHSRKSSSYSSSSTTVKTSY

Compound	Activity [1]	Activity [2]	inhibition [3]	inhibition [4]	Activity [5]	Activity [6]	inhibition [7]	inhibition [8]	inhibition [9]	inhibition [10]
CC[C@H]1OC(=O)[C@H](C)[C@@H](O[C@H]2C[C@@](C)(OC)[C@@H](O)[C@H](C)O2)[C@H](C)[C@@H](O[C@@H]2O[C@H](C)C[C@H](N(C)C)[C@H]2O)[C@](C)(OC)C[C@@H](C)C(=O)[C@H](C)[C@@H](O)[C@]1(C)O [CLARITHROMYCIN]	Non-toxic	Non-toxic	Active	inactive	inactive	inactive				
CO[C@H]1C[C@H](O[C@H]2[C@H](C)[C@@H](O[C@@H]3O[C@H](C)C[C@H](N(C)C)[C@H]3O)[C@@H](C)C[C@@]3(CO3)C(=O)[C@H](C)[C@@H](O)[C@@H](C)[C@@H](C)OC(=O)[C@@H]2C)O[C@@H](C)[C@@H]1O							inactive			
CC[C@H]1OC(=O)[C@H](C)[C@@H](O[C@H]2C[C@@](C)(OC)[C@@H](O)[C@H](C)O2)[C@H](C)[C@@H](O[C@@H]2O[C@H](C)C[C@H](N(C)C)[C@H]2O)[C@](C)(O)C[C@@H](C)C(=O)[C@H](C)[C@@H](O)[C@]1(C)O [ERYTHROMYCIN]	Non-toxic	Non-toxic	Active		inactive	inactive		Active	Active	Active
CO[C@@H]1[C@@H](O[C@@H]2O[C@H](C)[C@@H](O[C@H]3C[C@@](C)(O)[C@@H](OC(=O)CC(C)C)[C@H](C)O3)[C@H](N(C)C)[C@H]2O)[C@@H](CC=O)C[C@@H](C)[C@@H](O)/C=C/C=C/C[C@@H](C)OC(=O)C[C@H]1OC(C)=O							inactive			
CC[C@H]1OC(=O)[C@H](C)[C@@H](O[C@H]2C[C@@](C)(OC)[C@@H](O)[C@H](C)O2)[C@H](C)[C@@H](O[C@@H]2O[C@H](C)C[C@H](N(C)C)[C@H]2O)[C@](C)(O)C[C@@H](C)/C(=N\OCOCCOC)[C@H](C)[C@@H](O)[C@]1(C)O [ROXITHROMYCIN]	Non-toxic	Non-toxic	Active		inactive	inactive		Active		Active
SPIRAMYCIN							inactive			
